According to ChEMBL document CHEMBL1201862, “PubChem BioAssay data set” (2004):
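Grown in 96-well plates, cells were treated for 48 hours with each compound at five concentrations. Insufficient inhibition: endpoint recorded as highest concentration tested. At the GI50, growth is halved.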 The source made the active and inactive calls. Cut-off read from the data, not from the text of the source: active = GI50 up to about 1.1 µM and inactive = higher.

Experiments:
Experiment in all cases: NCI anticancer screen, dose series, 48 h
EKVX = tested on: EKVX
CCRF-CEM = tested on: CCRF-CEM
KM12 = tested on: KM12
OVCAR-5 = tested on: OVCAR-5
IGROV-1 = tested on: IGROV-1
SW-620 = tested on: SW-620
786-0 = tested on: 786-0
OVCAR-4 = tested on: OVCAR-4
NCI-H23 = tested on: NCI-H23
SNB-75 = tested on: SNB-75
UO-31 = tested on: UO-31
TK-10 = tested on: TK-10
A549 = tested on: A549
HCC 2998 = tested on: HCC 2998
U-251 = tested on: U-251
LOX IMVI = tested on: LOX IMVI
RXF 393 = tested on: RXF 393
SK-MEL-5 = tested on: SK-MEL-5

Row | Compound | GI50 (EKVX) | GI50 (CCRF-CEM) | GI50 (KM12) | GI50 (OVCAR-5) | GI50 (IGROV-1) | GI50 (SW-620) | GI50 (786-0) | GI50 (OVCAR-4) | GI50 (NCI-H23) | GI50 (SNB-75) | GI50 (UO-31) | GI50 (TK-10) | GI50 (A549) | GI50 (HCC 2998) | GI50 (U-251) | GI50 (LOX IMVI) | GI50 (RXF 393) | GI50 (SK-MEL-5)
1 | O=C1c2ccccc2C(=O)c2c(O)c(NCCCNCCO)cc(O)c21 | 13.7 µM (inactive) | 2.47 µM (inactive) | 0.729 µM (active) | 11.3 µM (inactive) | 12.4 µM (inactive) | 4.33 µM (inactive) | 10.5 µM (inactive) | 10.2 µM (inactive) | 9.18 µM (inactive) | 12.9 µM (inactive) | 5.87 µM (inactive) | 8.83 µM (inactive) | 10.3 µM (inactive) | 3.06 µM (inactive) | 6.15 µM (inactive) |  |  | 
2 | COc1ccc(C(=O)Nc2ccccc2)cc1[N+](=O)[O-] | 46.6 µM (inactive) | > 100 µM (inactive) | 89.7 µM (inactive) |  | > 100 µM (inactive) | > 100 µM (inactive) | > 100 µM (inactive) |  | > 100 µM (inactive) | 59.7 µM (inactive) | 81.5 µM (inactive) | > 100 µM (inactive) | > 100 µM (inactive) |  | > 100 µM (inactive) | > 100 µM (inactive) | 76.7 µM (inactive) | 31.5 µM (inactive)
3 | Cc1cc(O)cc2c1O[C@@]1(C)CCC3[C@@]4(C)CC[C@H](O)C(C)(C)C4CC[C@@]3(C)[C@H]1C2 (stereo not given in full) | 12.6 µM (inactive) | 2.55 µM (inactive) | 4.31 µM (inactive) |  | 13.5 µM (inactive) | 6.14 µM (inactive) | 2.32 µM (inactive) |  | 10 µM (inactive) | 3.03 µM (inactive) | 8.45 µM (inactive) | 12.5 µM (inactive) | 5.15 µM (inactive) |  | 2.84 µM (inactive) | 6.07 µM (inactive) | 3.56 µM (inactive) | 5.61 µM (inactive)
4 | O=C(c1cccc2ccccc12)N1CCC(C2CCN(C(=O)c3cccc4ccccc34)CC2)CC1 | > 100 µM (inactive) | > 100 µM (inactive) | > 100 µM (inactive) | 99.1 µM (inactive) | > 100 µM (inactive) | > 100 µM (inactive) | > 100 µM (inactive) |  | > 100 µM (inactive) | 23.8 µM (inactive) | > 100 µM (inactive) | > 100 µM (inactive) | > 100 µM (inactive) |  | > 100 µM (inactive) | > 100 µM (inactive) | > 100 µM (inactive) | > 100 µM (inactive)
5 | CN(C)C(=S)/N=c1\ss/c(=N\C(=S)N(C)C)n1Cc1ccco1 |  | > 100 µM (inactive) | > 100 µM (inactive) |  | > 100 µM (inactive) | > 100 µM (inactive) | > 100 µM (inactive) | > 100 µM (inactive) |  | > 100 µM (inactive) | > 100 µM (inactive) | > 100 µM (inactive) | > 100 µM (inactive) | > 100 µM (inactive) | > 100 µM (inactive) |  | > 100 µM (inactive) | > 100 µM (inactive)
6 | N#CSCc1nc2ccc(Cl)cc2c(-c2ccccc2)[n+]1[O-] | 23.2 µM (inactive) | 14.5 µM (inactive) | 22 µM (inactive) | 21 µM (inactive) | > 10 µM (inactive) | 16.6 µM (inactive) | 18.2 µM (inactive) | 25.5 µM (inactive) |  | 32.7 µM (inactive) | 18.7 µM (inactive) | > 100 µM (inactive) | 33.8 µM (inactive) | 15.6 µM (inactive) | 29.4 µM (inactive) | 18 µM (inactive) | 12.7 µM (inactive) | 
7 | CCC(C)OC(=O)C1C2CCC(O2)C1C(=O)O (stereo not given) | > 100 µM (inactive) | > 100 µM (inactive) | > 100 µM (inactive) | > 100 µM (inactive) | > 100 µM (inactive) |  | > 44.2 µM (inactive) | > 100 µM (inactive) | > 100 µM (inactive) | > 100 µM (inactive) | > 100 µM (inactive) | > 100 µM (inactive) | > 60.7 µM (inactive) | > 100 µM (inactive) | > 44.3 µM (inactive) | > 41.9 µM (inactive) | > 41.5 µM (inactive) | > 100 µM (inactive)
8 | O=C(CC1(O)C(=O)Nc2ccccc21)c1ccncc1 (stereo not given) | > 100 µM (inactive) | > 100 µM (inactive) |  | > 100 µM (inactive) | > 100 µM (inactive) | > 100 µM (inactive) | > 100 µM (inactive) | > 100 µM (inactive) | > 100 µM (inactive) | > 100 µM (inactive) | > 100 µM (inactive) |  | > 100 µM (inactive) | > 100 µM (inactive) | > 100 µM (inactive) | > 100 µM (inactive) | > 100 µM (inactive) | > 100 µM (inactive)
9 | CCOC(=O)c1[nH]c2c(OC)n[n+]([O-])cc2c1[N+](=O)[O-] | 21.3 µM (inactive) | 26.1 µM (inactive) | 15 µM (inactive) | 19.6 µM (inactive) | 54.8 µM (inactive) | 15.7 µM (inactive) | 16.4 µM (inactive) | 19.8 µM (inactive) | 10 µM (inactive) | 9.23 µM (inactive) | 22 µM (inactive) | 16.4 µM (inactive) | 88.5 µM (inactive) | 10 µM (inactive) | 17 µM (inactive) | 16.4 µM (inactive) | 15.8 µM (inactive) | 
10 | CCCN(CCC)C(=O)c1c([N+](=O)[O-])cc(C(F)(F)F)cc1[N+](=O)[O-] | 52.5 µM (inactive) | 62.4 µM (inactive) | 46.1 µM (inactive) | 65.5 µM (inactive) | 58.2 µM (inactive) | 27.7 µM (inactive) | 68.2 µM (inactive) | 14.9 µM (inactive) | 25.4 µM (inactive) | > 100 µM (inactive) | > 100 µM (inactive) | > 100 µM (inactive) | 32.5 µM (inactive) |  | 64.9 µM (inactive) | 35.7 µM (inactive) | 26.2 µM (inactive) | 
11 | CCc1cccc(NC(=O)c2cc(/C=C/c3ccccc3)nc(S)n2)c1 | > 100 µM (inactive) | > 100 µM (inactive) | > 100 µM (inactive) | > 100 µM (inactive) | > 100 µM (inactive) | > 100 µM (inactive) | > 100 µM (inactive) | > 100 µM (inactive) | > 100 µM (inactive) | > 100 µM (inactive) | > 100 µM (inactive) | > 100 µM (inactive) | > 100 µM (inactive) | > 100 µM (inactive) | > 100 µM (inactive) |  | > 100 µM (inactive) | > 100 µM (inactive)
12 | O=C1[C@@H]2C(c3cccc([N+](=O)[O-])c3)=NO[C@@H]2C(=O)N1c1ccc(Cc2ccc(N3C(=O)[C@H]4C(c5cccc([N+](=O)[O-])c5)=NO[C@H]4C3=O)cc2)cc1 |  | > 100 µM (inactive) | > 10 µM (inactive) | > 100 µM (inactive) | > 100 µM (inactive) | > 100 µM (inactive) | 91 µM (inactive) | > 100 µM (inactive) |  | > 100 µM (inactive) | > 100 µM (inactive) | > 100 µM (inactive) |  |  | > 10 µM (inactive) | > 10 µM (inactive) | > 100 µM (inactive) | 
13 | COc1ccc(C2=NC(CO)[C@H](c3ccccc3)O2)cc1OC (stereo not given in full) |  | > 100 µM (inactive) | > 100 µM (inactive) | > 100 µM (inactive) | > 100 µM (inactive) | > 100 µM (inactive) | > 100 µM (inactive) | > 100 µM (inactive) |  | > 100 µM (inactive) | > 100 µM (inactive) |  | > 100 µM (inactive) | > 100 µM (inactive) |  | > 100 µM (inactive) |  | > 100 µM (inactive)
